#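 Where inhibition never reached the appropriate level, the endpoint shown equals the highest concentration tested. Otherwise, values were interpolated linearly from a five-concentration, 48-hour dose response in 96-well plates. At the GI50, growth is halved.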 Activity calls are given as the source filed them. Rule as the data show it: active = GI50 up to about 1.1 µM and inactive = higher.
# Legend:
# Assay in all cases: NCI-60 cell line screen, 48 h
# 786-0 = test system: 786-0
# A498 = test system: A498
# A549 = test system: A549
# ACHN = test system: ACHN
# BT-549 = test system: BT-549
# CAKI-1 = test system: CAKI-1
# CCRF-CEM = test system: CCRF-CEM
# COLO 205 = test system: COLO 205
# DU-145 = test system: DU-145
# EKVX = test system: EKVX
# HCC 2998 = test system: HCC 2998
# HCT-116 = test system: HCT-116
# HCT-15 = test system: HCT-15
# HL-60 = test system: HL-60
# HOP-62 = test system: HOP-62
# HOP-92 = test system: HOP-92
# HT-29 = test system: HT-29
# Hs-578T = test system: Hs-578T
# IGROV-1 = test system: IGROV-1
# K562 = test system: K562
# KM12 = test system: KM12
# LOX IMVI = test system: LOX IMVI
# M14 = test system: M14
# MCF7 = test system: MCF7
# MDA-MB-231 = test system: MDA-MB-231
# MDA-MB-435 = test system: MDA-MB-435
# MDA-N = test system: MDA-N
# MOLT-4 = test system: MOLT-4
# Malme-3M = test system: Malme-3M
# NCI-H226 = test system: NCI-H226
# NCI-H23 = test system: NCI-H23
# NCI-H460 = test system: NCI-H460
# NCI/ADR-RES = test system: NCI/ADR-RES
# OVCAR-3 = test system: OVCAR-3
# OVCAR-4 = test system: OVCAR-4
# OVCAR-5 = test system: OVCAR-5
# OVCAR-8 = test system: OVCAR-8
# PC-3 = test system: PC-3
# RPMI-8226 = test system: RPMI-8226
# RXF 393 = test system: RXF 393
# SF-268 = test system: SF-268
# SF-295 = test system: SF-295
# SF-539 = test system: SF-539
# SK-MEL-28 = test system: SK-MEL-28
# SK-MEL-2 = test system: SK-MEL-2
# SK-MEL-5 = test system: SK-MEL-5
# SK-OV-3 = test system: SK-OV-3
# SN12C = test system: SN12C
# SNB-19 = test system: SNB-19
# SNB-75 = test system: SNB-75
# SR = test system: SR
# SW-620 = test system: SW-620
# T47D = test system: T47D
# TK-10 = test system: TK-10
# U-251 = test system: U-251
# UACC-257 = test system: UACC-257
# UACC-62 = test system: UACC-62
# UO-31 = test system: UO-31
smiles,measurement,setting,value
CCOP(=O)(OCC)C(F)(F)CC1CCCCC1,GI50,786-0,> 10 µM (inactive)
same,GI50,A498,> 10 µM (inactive)
same,GI50,A549,> 10 µM (inactive)
same,GI50,ACHN,> 10 µM (inactive)
same,GI50,BT-549,> 10 µM (inactive)
same,GI50,CAKI-1,> 10 µM (inactive)
same,GI50,CCRF-CEM,> 10 µM (inactive)
same,GI50,COLO 205,> 10 µM (inactive)
same,GI50,DU-145,> 10 µM (inactive)
same,GI50,EKVX,> 10 µM (inactive)
same,GI50,HCC 2998,> 10 µM (inactive)
same,GI50,HCT-116,> 10 µM (inactive)
same,GI50,HCT-15,> 10 µM
same,GI50,HL-60,> 10 µM (inactive)
same,GI50,HOP-62,> 10 µM (inactive)
same,GI50,HOP-92,> 10 µM (inactive)
same,GI50,HT-29,> 10 µM (inactive)
same,GI50,Hs-578T,> 10 µM (inactive)
same,GI50,IGROV-1,> 10 µM (inactive)
same,GI50,K562,> 10 µM (inactive)
same,GI50,KM12,> 10 µM (inactive)
same,GI50,LOX IMVI,> 10 µM (inactive)
same,GI50,M14,> 10 µM (inactive)
same,GI50,MCF7,> 10 µM (inactive)
same,GI50,MDA-MB-231,> 10 µM (inactive)
same,GI50,MDA-MB-435,> 10 µM (inactive)
same,GI50,MDA-N,> 10 µM (inactive)
same,GI50,MOLT-4,> 10 µM (inactive)
same,GI50,Malme-3M,> 10 µM (inactive)
same,GI50,NCI-H226,> 10 µM (inactive)
same,GI50,NCI-H23,> 10 µM (inactive)
same,GI50,NCI-H460,> 10 µM (inactive)
same,GI50,NCI/ADR-RES,> 10 µM (inactive)
same,GI50,OVCAR-3,> 10 µM (inactive)
same,GI50,OVCAR-4,> 10 µM (inactive)
same,GI50,OVCAR-5,> 10 µM (inactive)
same,GI50,OVCAR-8,> 10 µM (inactive)
same,GI50,PC-3,> 10 µM (inactive)
same,GI50,RPMI-8226,> 10 µM (inactive)
same,GI50,RXF 393,> 10 µM (inactive)
same,GI50,SF-268,> 10 µM (inactive)
same,GI50,SF-295,> 10 µM (inactive)
same,GI50,SF-539,> 10 µM (inactive)
same,GI50,SK-MEL-28,> 10 µM (inactive)
same,GI50,SK-MEL-2,> 10 µM (inactive)
same,GI50,SK-MEL-5,> 10 µM (inactive)
same,GI50,SK-OV-3,> 10 µM (inactive)
same,GI50,SN12C,> 10 µM (inactive)
same,GI50,SNB-19,> 10 µM (inactive)
same,GI50,SNB-75,4.38 µM (inactive)
same,GI50,SR,> 10 µM (inactive)
same,GI50,SW-620,> 10 µM (inactive)
same,GI50,T47D,> 10 µM (inactive)
same,GI50,TK-10,> 10 µM (inactive)
same,GI50,U-251,> 10 µM (inactive)
same,GI50,UACC-257,> 10 µM (inactive)
same,GI50,UACC-62,> 10 µM (inactive)
same,GI50,UO-31,> 10 µM (inactive)
